In patent US12187723B2 (BRISTOL-MYERS SQUIBB COMPANY, priority 2019, dated 2025) one finds IC50 data, which are given here for 23 molecules.

Where only a bound is given, the exact number is not on record here.

The target in this assay is T1, human TLR7 (Homo sapiens, UniProt Q9NYK1).
T1 construct: host or cells: HEK-Blue cells
T1 sequence (Q9NYK1 27-1049): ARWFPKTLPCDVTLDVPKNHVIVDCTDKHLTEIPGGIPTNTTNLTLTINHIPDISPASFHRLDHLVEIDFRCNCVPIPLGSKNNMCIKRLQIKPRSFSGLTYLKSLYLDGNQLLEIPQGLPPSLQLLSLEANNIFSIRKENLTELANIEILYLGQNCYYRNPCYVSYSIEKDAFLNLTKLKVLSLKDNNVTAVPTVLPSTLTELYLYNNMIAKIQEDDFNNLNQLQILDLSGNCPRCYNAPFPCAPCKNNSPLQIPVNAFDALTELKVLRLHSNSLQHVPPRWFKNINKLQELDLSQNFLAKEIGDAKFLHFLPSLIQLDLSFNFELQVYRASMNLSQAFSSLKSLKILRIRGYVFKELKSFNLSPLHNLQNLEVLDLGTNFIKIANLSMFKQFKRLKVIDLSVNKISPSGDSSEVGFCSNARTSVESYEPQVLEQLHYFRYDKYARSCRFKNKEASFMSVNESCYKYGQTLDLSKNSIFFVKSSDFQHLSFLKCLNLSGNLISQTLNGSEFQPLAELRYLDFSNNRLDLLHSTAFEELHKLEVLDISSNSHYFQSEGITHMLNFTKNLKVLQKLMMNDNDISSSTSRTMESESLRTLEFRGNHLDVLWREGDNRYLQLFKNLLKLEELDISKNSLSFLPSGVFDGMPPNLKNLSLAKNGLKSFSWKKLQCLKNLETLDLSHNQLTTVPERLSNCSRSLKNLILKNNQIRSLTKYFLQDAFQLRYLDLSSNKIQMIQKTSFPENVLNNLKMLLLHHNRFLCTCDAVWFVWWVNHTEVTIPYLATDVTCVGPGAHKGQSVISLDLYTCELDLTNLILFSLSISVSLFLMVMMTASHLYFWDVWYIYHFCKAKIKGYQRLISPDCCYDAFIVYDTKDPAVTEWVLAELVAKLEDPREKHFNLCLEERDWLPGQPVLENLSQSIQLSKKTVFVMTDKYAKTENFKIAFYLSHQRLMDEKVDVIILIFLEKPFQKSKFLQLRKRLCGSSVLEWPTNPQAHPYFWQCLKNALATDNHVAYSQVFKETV
Nature of the assay: TLR7 inhibition reporter assay (HEK-Blue SEAP). The note with it: HEK-Blue cells overexpressing human TLR7, gardiquimod 7.5 μM, 22 hour incubation. Format: cell-based. An outline of the steps:
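22 h, 37° C, 5% CO2 incubation; compounds 0.05 nM-50 μM final; TLR7 cells 15000/well, TLR8 20,000/well. Readout: SEAP via HEK-Blue Detection medium. % inhibition = signal reduction versus agonist + DMSO wells, referenced to known inhibitor.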
For the molecule `Cc1cc2c(cc1-c1cc(C)c3ncnn3c1)[nH]c(=O)n2[C@@H]1CCCN(CC2CCOCC2)C1` [Example 41, (R)-6-methyl-5-(8-methyl-[1,2,4]triazolo[1,5-a]pyridin-6-yl)-1-(1-((tetrahydro-2H-pyran-4-yl)methyl)piperidin-3-yl)-1,3-dihydro-2H-benzo[d]imidazol-2-one], inhibition was half-maximal at 12.3 nM (IC50).

Molecule `CCCN1CCC[C@@H](n2c(=O)[nH]c3cc(-c4cc(C)c5ncnn5c4)c(C)cc32)C1` [Example 42, (R)-6-methyl-5-(8-methyl-[1,2,4]triazolo[1,5-a]pyridin-6-yl)-1-(1-propylpiperidin-3-yl)-1,3-dihydro-2H-benzo[d]imidazol-2-one] showed an IC50 of 26.3 nM. Take `CCCN1CCC[C@@H](n2c(=O)[nH]c3cc(-c4cc(OC)c5ncnn5c4)c(C)cc32)C1` [Example 54, (R)-5-(8-methoxy-[1,2,4]triazolo[1,5-a]pyridin-6-yl)-6-methyl-1-(1-propylpiperidin-3-yl)-1,3-dihydro-2H-benzo[d]imidazol-2-one]: the IC50 amounted to 29.2 nM. `COc1cc(-c2ccc3c(c2)[nH]c(=O)n3C2CCN(C3CCOC3)CC2)cn2ncnc12` (centres unmarked) [Example 81, 5-(8-methoxy-[1,2,4]triazolo[1,5-a]pyridin-6-yl)-1-(1-(tetrahydrofuran-3-yl)piperidin-4-yl)-1,3-dihydro-2H-benzo[d]imidazol-2-one] showed an IC50 of 2640 nM.

In the case of `Cc1cc2c(cc1-c1cc(C)c3ncnn3c1)[nH]c(=O)n2[C@@H]1CCCN(Cc2cccnc2)C1` [Example 46, (R)-6-methyl-5-(8-methyl-[1,2,4]triazolo[1,5-a]pyridin-6-yl)-1-(1-(pyridin-3-ylmethyl)piperidin-3-yl)-1,3-dihydro-2H-benzo[d]imidazol-2-one], the IC50 worked out at 172 nM. As for `COc1cc(-c2ccc3c(c2)[nH]c(=O)n3C2CCN(C(C)C)CC2)cn2ncnc12` [Example 77, 1-(1-isopropylpiperidin-4-yl)-5-(8-methoxy-[1,2,4]triazolo[1,5-a]pyridin-6-yl)-1,3-dihydro-2H-benzo[d]imidazol-2-one], the IC50 is 1530 nM. `COc1cc(-c2cc3[nH]c(=O)n(C4CCN(CC(=O)N(C)C)CC4)c3cc2C)cn2ncnc12` [Example 86, 2-(4-(5-(8-methoxy-[1,2,4]triazolo[1,5-a]pyridin-6-yl)-6-methyl-2-oxo-2,3-dihydro-1H-benzo[d]imidazol-1-yl)piperidin-1-yl)-N,N-dimethylacetamide] returned an IC50 of 142 nM. Molecule `COc1ncc(CN2CCC[C@H](n3c(=O)[nH]c4cc(-c5cc(C)c6ncnn6c5)c(C)cc43)C2)cn1` [Example 36, (S)-1-(1-((2-methoxypyrimidin-5-yl)methyl)piperidin-3-yl)-6-methyl-5-(8-methyl-[1,2,4]triazolo[1,5-a]pyridin-6-yl)-1,3-dihydro-2H-benzo[d]imidazol-2-one] yielded an IC50 of 171 nM. In the case of `COc1cc(-c2ccc3c(c2)[nH]c(=O)n3C2CCN(CC3CC3)CC2)cn2ncnc12` [Example 79, 1-(1-(cyclopropylmethyl)piperidin-4-yl)-5-(8-methoxy-[1,2,4]triazolo[1,5-a]pyridin-6-yl)-1,3-dihydro-2H-benzo[d]imidazol-2-one], the IC50 was greater than 3130 nM. The molecule `COc1cc(-c2ccc3c(c2)[nH]c(=O)n3C2CCN(C)CC2)cn2ncnc12` [Example 74, 5-(8-methoxy-[1,2,4]triazolo[1,5-a]pyridin-6-yl)-1-(1-methylpiperidin-4-yl)-1,3-dihydro-2H-benzo[d]imidazol-2-one] returned an IC50 of 948 nM. With `COc1cc(-c2cc3[nH]c(=O)n([C@H]4CC[C@@H](NC5CCC5)CC4)c3cc2C)cn2ncnc12` [Example 58, 1-((1s,4s)-4-(cyclobutylamino)cyclohexyl)-5-(8-methoxy-[1,2,4]triazolo[1,5-a]pyridin-6-yl)-6-methyl-1,3-dihydro-2H-benzo[d]imidazol-2-one], the IC50 amounted to 16.2 nM. For `Cc1cc2c(cc1-c1cc(C)c3ncnn3c1)[nH]c(=O)n2C1CCN(C(C)C)CC1` [Example 2, 1-(1-isopropylpiperidin-4-yl)-6-methyl-5-(8-methyl-[1,2,4]triazolo[1,5-a]pyridin-6-yl)-1,3-dihydro-2H-benzo[d]imidazol-2-one], it took 68.8 nM to reach half-maximal inhibition (IC50).

In turn, `COc1cc(-c2cc3[nH]c(=O)n([C@@H]4CCCN(CCC(F)(F)F)C4)c3cc2C)cn2ncnc12` [Example 68, (R)-5-(8-methoxy-[1,2,4]triazolo[1,5-a]pyridin-6-yl)-6-methyl-1-(1-(3,3,3-trifluoropropyl)piperidin-3-yl)-1,3-dihydro-2H-benzo[d]imidazol-2-one] gave an IC50 of 414 nM.

With `CCN[C@H]1CC[C@@H](n2c(=O)[nH]c3cc(-c4cc(OC)c5ncnn5c4)c(C)cc32)CC1` [Example 63, 1-((1s,4s)-4-(ethylamino)cyclohexyl)-5-(8-methoxy-[1,2,4]triazolo[1,5-a]pyridin-6-yl)-6-methyl-1,3-dihydro-2H-benzo[d]imidazol-2-one], the IC50 stood at 45.1 nM.

Consider `CCC(C)N[C@H]1CC[C@@H](n2c(=O)[nH]c3cc(-c4cc(C)c5ncnn5c4)c(C)cc32)CC1` (some centres unmarked) [Example 34, 1-((1s,4s)-4-(sec-butylamino)cyclohexyl)-6-methyl-5-(8-methyl-[1,2,4]triazolo[1,5-a]pyridin-6-yl)-1,3-dihydro-2H-benzo[d]imidazol-2-one], for which half-maximal inhibition (IC50) required 20.5 nM. The figure for `Cc1cc2c(cc1-c1cc(C)c3ncnn3c1)[nH]c(=O)n2[C@H]1CC[C@@H](NCc2ncn(C)n2)CC1` [Example 33, 6-methyl-1-((1s,4s)-4-(((1-methyl-1H-1,2,4-triazol-3-yl)methyl)amino)cyclohexyl)-5-(8-methyl-[1,2,4]triazolo[1,5-a]pyridin-6-yl)-1,3-dihydro-2H-benzo[d]imidazol-2-one] is 138 nM. In turn, `CCC(CC)CN1CCC[C@@H](n2c(=O)[nH]c3cc(-c4cc(OC)c5ncnn5c4)c(C)cc32)C1` [Example 73, (R)-1-(1-(2-ethylbutyl)piperidin-3-yl)-5-(8-methoxy-[1,2,4]triazolo[1,5-a]pyridin-6-yl)-6-methyl-1,3-dihydro-2H-benzo[d]imidazol-2-one] yielded a half-maximal inhibitory concentration (IC50) of 32.4 nM. The molecule `COc1cc(-c2cc3[nH]c(=O)n([C@H]4CC[C@@H](N(C)C5CCOCC5)CC4)c3cc2C)cn2ncnc12` [Example 85, 5-(8-methoxy-[1,2,4]triazolo[1,5-a]pyridin-6-yl)-6-methyl-1-((1s,4s)-4-(methyl(tetrahydro-2H-pyran-4-yl)amino)cyclohexyl)-1,3-dihydro-2H-benzo[d]imidazol-2-one] came in with an IC50 of 21.4 nM. In the case of `COc1cc(-c2cc3[nH]c(=O)n([C@@H]4CCCN(CC5CCOCC5)C4)c3cc2C)cn2ncnc12` [Example 57, (R)-5-(8-methoxy-[1,2,4]triazolo[1,5-a]pyridin-6-yl)-6-methyl-1-(1-((tetrahydro-2H-pyran-4-yl)methyl)piperidin-3-yl)-1,3-dihydro-2H-benzo[d]imidazol-2-one], the midpoint of inhibition, the IC50, lay at 8.11 nM. On to `COc1cc(-c2cc3[nH]c(=O)n([C@H]4CC[C@@H](NCC5CCCCC5)CC4)c3cc2C)cn2ncnc12` [Example 66, 1-((1s,4s)-4-((cyclohexylmethyl)amino)cyclohexyl)-5-(8-methoxy-[1,2,4]triazolo[1,5-a]pyridin-6-yl)-6-methyl-1,3-dihydro-2H-benzo[d]imidazol-2-one], for which half-maximal inhibition (IC50) was put at 20.8 nM. As to `CCC(CC)CN1CCC(n2c(=O)[nH]c3cc(-c4cc(OC)c5ncnn5c4)ccc32)CC1` [Example 75, 1-(1-(2-ethylbutyl)piperidin-4-yl)-5-(8-methoxy-[1,2,4]triazolo[1,5-a]pyridin-6-yl)-1,3-dihydro-2H-benzo[d]imidazol-2-one], the IC50 worked out at 1360 nM. The molecule `COc1cc(-c2cc3[nH]c(=O)n([C@@H]4CCCN(CC(C)(C)C)C4)c3cc2C)cn2ncnc12` [Example 71, (R)-5-(8-methoxy-[1,2,4]triazolo[1,5-a]pyridin-6-yl)-6-methyl-1-(1-neopentylpiperidin-3-yl)-1,3-dihydro-2H-benzo[d]imidazol-2-one] had an IC50 of 22.5 nM. Regarding `CNC(=O)CN1CCC(n2c(=O)[nH]c3cc(-c4cc(OC)c5ncnn5c4)c(C)cc32)CC1` [Example 87, 2-(4-(5-(8-methoxy-[1,2,4]triazolo[1,5-a]pyridin-6-yl)-6-methyl-2-oxo-2,3-dihydro-1H-benzo[d]imidazol-1-yl)piperidin-1-yl)-N-methylacetamide], the midpoint of inhibition, the IC50, lay at 497 nM.
